Patent US7973056B2, “Triazole derivative or salt thereof” (Fujifilm Finechemicals Co., Ltd, priority 2008, dated 2011)
Values after ≈ are worked out from the molar mass of the structure shown.

What was measured:
[1] = system: Pityrosporum ovale ATCC 38593; assay: Antifungal activity test (in vitro), MIC; assay type: cell-based; conditions: Malassezia furfur, ATCC38593
[2] = system: Cryptococcus neoformans ATCC 24067; assay: Antifungal activity test (in vitro), MIC; assay type: cell-based; conditions: ATCC24067
[3] = system: Candida albicans ATCC 10231; assay: Antifungal activity test (in vitro), MIC; assay type: cell-based; conditions: ATCC10231
[4] = system: Candida albicans TIMM 1623; assay: Antifungal activity test (in vivo), mouse systemic infection model; set-up: survival rate: unit not given here; conditions: for T/C (%): survival time of administration group / control group x100
Method: With respect to compounds I-1, I-3 and I-6 obtained in Examples 1, 3 and 6 respectively, therapeutic effects at the time of subcutaneous administration of compounds I-1, I-3 and I-6 on a mouse systemic infection model by Candida albicans TIMM 1623 were tested.
The test was carried out using 5 animals for each of the drug administration groups and Negative control group (sterile physiological saline administration group).
Each of compounds I-1, I-3 and I-6 was dissolved in and diluted with dimethyl sulfoxide (DMSO; Wako Pure Chemical Industries, Ltd.) and then prepared into a predetermined concentration by diluting with sterile physiological saline.
As the control experiment, Fluconazole (FLCZ, Flanos intravenous drip solution 100 mg; TOYAMA CHEMICAL CO, LTD.) diluted to a predetermined concentration with sterile physiological saline was used.
On the next day of the receipt of animals, body weights of mice were measured and CP (crude protein) was intraperitoneally administered at a dose of 200 mg/kg based on the individual body weight, and then they were reared for 3 days.
Cells of C. albicans TIMM 1623 cultured overnight at 35° C. on SDA (Sabouraud dextrose agar; Eiken Chemical Co., Ltd.) plate medium were suspended in sterile physiological saline and used as the Stock solution, and a portion thereof was diluted with 10% formalin (Wako Pure Chemical Industries, Ltd.). The number of cells in the diluted liquid was counted under a biological microscope using a hemocytometer, and then an inoculum was prepared by diluting the stock solution with sterile physiological saline (about 1.5×10^5 cells/ml). By inoculating 0.2 ml of this cell suspension through caudal vein, infection was induced. In this connection, the number of viable cells in the inoculum was verified by spreading the cell suspension optionally diluted with sterile physiological saline on an SDA plate medium and then culturing at 35° C. Each of the substances to be tested, control substance or sterile physiological saline was subcutaneously administered after 2 hours of the infection and for 3 days starting on the next day of infection once a day, a total of 4 times. After measuring individual body weight on the next day of infection, CP was again administered intraperitoneally at a dose of 100 mg/kg. The number of survived mice was observed and recorded for 14 days starting on the next day of infection.
The results were shown in Table 3 below and FIGS. 1A to 1D. In the table, the administration dose of the compounds of the present invention and the comparative compound represents a mg amount per 1 kg of a mouse weight (mg/kg).
Significant deference was tested, by 5% for both sides of the levels of significance, in accordance with the Kaplan-Meier method Logrank test (comparison of multiple groups), on the survival time distribution of each of the substances to be tested and control substance administration groups and sterile physiological saline administration group. SAS release 8.2 (SAS Institute Japan) was used in the Kaplan-Meier method Logrank test. (T/C(%)=[survival time of administration group (integrated value)/survival time of control group (integrated value)]×100)

C[C@@H](N1CCC(c2ccccn2)CC1)[C@](O)(Cn1cncn1)c1ccc(F)cc1F [I-1, (2R,3R)-2-(2,4-difluorophenyl)-3-(4-pyridin-2-ylpiperidin-1-yl)-1-(1,2,4-triazol-1-yl)butan-2-ol]
MIC [1]: 0.3 µg/mL (≈ 0.726 µM)
MIC [2]: 0.1 µg/mL (≈ 0.242 µM)
MIC [3]: 0.3 µg/mL (≈ 0.726 µM)
survival rate ([4]; 0.1 mg/kg s.c., day 0): 100
survival rate ([4]; 0.1 mg/kg s.c., day 1): 100
survival rate ([4]; 0.1 mg/kg s.c., day 2): 100
survival rate ([4]; 0.1 mg/kg s.c., day 3): 60
survival rate ([4]; 0.1 mg/kg s.c., day 4): 60
survival rate ([4]; 0.1 mg/kg s.c., day 5): 60
survival rate ([4]; 0.1 mg/kg s.c., day 6): 60
survival rate ([4]; 0.1 mg/kg s.c., day 7): 20
survival rate ([4]; 0.1 mg/kg s.c., day 8): 20
survival rate ([4]; 0.1 mg/kg s.c., day 9): 20
survival rate ([4]; 0.1 mg/kg s.c., day 10): 20
survival rate ([4]; 0.1 mg/kg s.c., day 11): 20
survival rate ([4]; 0.1 mg/kg s.c., day 12): 0
T/C (%) ([4]; 0.1 mg/kg s.c.): 103%
survival rate ([4]; 1 mg/kg s.c., day 0): 100
survival rate ([4]; 1 mg/kg s.c., day 1): 100
survival rate ([4]; 1 mg/kg s.c., day 2): 100
survival rate ([4]; 1 mg/kg s.c., day 3): 100
survival rate ([4]; 1 mg/kg s.c., day 4): 100
survival rate ([4]; 1 mg/kg s.c., day 5): 80
survival rate ([4]; 1 mg/kg s.c., day 6): 80
survival rate ([4]; 1 mg/kg s.c., day 7): 60
survival rate ([4]; 1 mg/kg s.c., day 8): 60
survival rate ([4]; 1 mg/kg s.c., day 9): 60
survival rate ([4]; 1 mg/kg s.c., day 10): 40
survival rate ([4]; 1 mg/kg s.c., day 11): 40
survival rate ([4]; 1 mg/kg s.c., day 12): 40
survival rate ([4]; 1 mg/kg s.c., day 13): 20
survival rate ([4]; 1 mg/kg s.c., day 14): 20
T/C (%) ([4]; 1 mg/kg s.c.): 161%
survival rate ([4]; 10 mg/kg s.c., day 0): 100
survival rate ([4]; 10 mg/kg s.c., day 1): 100
survival rate ([4]; 10 mg/kg s.c., day 2): 100
survival rate ([4]; 10 mg/kg s.c., day 3): 60
survival rate ([4]; 10 mg/kg s.c., day 4): 60
survival rate ([4]; 10 mg/kg s.c., day 5): 60
survival rate ([4]; 10 mg/kg s.c., day 6): 60
survival rate ([4]; 10 mg/kg s.c., day 7): 40
survival rate ([4]; 10 mg/kg s.c., day 8): 40
survival rate ([4]; 10 mg/kg s.c., day 9): 40
survival rate ([4]; 10 mg/kg s.c., day 10): 40
survival rate ([4]; 10 mg/kg s.c., day 11): 40
survival rate ([4]; 10 mg/kg s.c., day 12): 40
survival rate ([4]; 10 mg/kg s.c., day 13): 20
survival rate ([4]; 10 mg/kg s.c., day 14): 20
T/C (%) ([4]; 10 mg/kg s.c.): 132%

C[C@@H](N1CC=C(c2ccccn2)CC1)[C@](O)(Cn1cncn1)c1ccc(F)cc1F [I-3, (2R,3R)-2-(2,4-difluorophenyl)-3-(3′,6′-dihydro-2,4′-bipyridin-1′(2′H)-yl)-1-(1,2,4-triazol-1-yl)butan-2-ol]
MIC [1]: 0.003 µg/mL (≈ 0.00729 µM)
MIC [2]: 0.3 µg/mL (≈ 0.729 µM)
MIC [3]: 0.3 µg/mL (≈ 0.729 µM)
survival rate ([4]; 0.1 mg/kg s.c., day 0): 100
survival rate ([4]; 0.1 mg/kg s.c., day 1): 100
survival rate ([4]; 0.1 mg/kg s.c., day 2): 100
survival rate ([4]; 0.1 mg/kg s.c., day 3): 60
survival rate ([4]; 0.1 mg/kg s.c., day 4): 60
survival rate ([4]; 0.1 mg/kg s.c., day 5): 60
survival rate ([4]; 0.1 mg/kg s.c., day 6): 60
survival rate ([4]; 0.1 mg/kg s.c., day 7): 40
survival rate ([4]; 0.1 mg/kg s.c., day 8): 40
survival rate ([4]; 0.1 mg/kg s.c., day 9): 40
survival rate ([4]; 0.1 mg/kg s.c., day 10): 40
survival rate ([4]; 0.1 mg/kg s.c., day 11): 40
survival rate ([4]; 0.1 mg/kg s.c., day 12): 40
survival rate ([4]; 0.1 mg/kg s.c., day 13): 40
survival rate ([4]; 0.1 mg/kg s.c., day 14): 40
T/C (%) ([4]; 0.1 mg/kg s.c.): 139%
survival rate ([4]; 1 mg/kg s.c., day 0): 100
survival rate ([4]; 1 mg/kg s.c., day 1): 100
survival rate ([4]; 1 mg/kg s.c., day 2): 100
survival rate ([4]; 1 mg/kg s.c., day 3): 80
survival rate ([4]; 1 mg/kg s.c., day 4): 80
survival rate ([4]; 1 mg/kg s.c., day 5): 60
survival rate ([4]; 1 mg/kg s.c., day 6): 40
survival rate ([4]; 1 mg/kg s.c., day 7): 40
survival rate ([4]; 1 mg/kg s.c., day 8): 40
survival rate ([4]; 1 mg/kg s.c., day 9): 40
survival rate ([4]; 1 mg/kg s.c., day 10): 40
survival rate ([4]; 1 mg/kg s.c., day 11): 40
survival rate ([4]; 1 mg/kg s.c., day 12): 40
survival rate ([4]; 1 mg/kg s.c., day 13): 40
survival rate ([4]; 1 mg/kg s.c., day 14): 40
T/C (%) ([4]; 1 mg/kg s.c.): 142%
survival rate ([4]; 10 mg/kg s.c., day 0): 100
survival rate ([4]; 10 mg/kg s.c., day 1): 100
survival rate ([4]; 10 mg/kg s.c., day 2): 100
survival rate ([4]; 10 mg/kg s.c., day 3): 60
survival rate ([4]; 10 mg/kg s.c., day 4): 60
survival rate ([4]; 10 mg/kg s.c., day 5): 60
survival rate ([4]; 10 mg/kg s.c., day 6): 60
survival rate ([4]; 10 mg/kg s.c., day 7): 40
survival rate ([4]; 10 mg/kg s.c., day 8): 20
survival rate ([4]; 10 mg/kg s.c., day 9): 20
survival rate ([4]; 10 mg/kg s.c., day 10): 20
survival rate ([4]; 10 mg/kg s.c., day 11): 20
survival rate ([4]; 10 mg/kg s.c., day 12): 20
survival rate ([4]; 10 mg/kg s.c., day 13): 20
survival rate ([4]; 10 mg/kg s.c., day 14): 20
T/C (%) ([4]; 10 mg/kg s.c.): 116%
